Values quoted from earlier work as cited in US20070248696A1, “Composition and method for enhancing neuromuscular facilitation and cognitive functions” (priority 2006, published 2007).

What was measured:
[1] = relative to vitamin E
[2] = relative to vitamin E; remark: listed apart in the source
[3] = in vivo

Structure (SMILES)	more powerful than vitamin E in neutralizing pro-oxidants and free radicals that attack lipids [1]	more potent than vitamin E in reducing oxidation [2]	motor performance and coordination in the rotorod and open field tests [3]
O=C(O[C@@H]1Cc2c(O)cc(O)cc2O[C@@H]1c1cc(O)c(O)c(O)c1)c1cc(O)c(O)c(O)c1 [EGCG, (−)-epigallocatechin-3-gallate]	over 200 times	20 times	
C[N+](C)(C)CCOP(=O)(O)OP(=O)([O-])OC[C@H]1O[C@@H](n2ccc(N)nc2=O)[C@H](O)[C@@H]1O [CDP-choline, cytidine 5′-diphosphocholine]			improves motor performance and coordination
